Columns and labels:
[1] = tested on: S100A4 promoter; experiment: High-throughput screening, S100A4 promoter-driven luciferase reporter; format: cell-based, human; conditions: HCT116-S100A4p-LUC cells, 20-concentration rescreen, 2-fold dilutions from 100 μM, 24 h
Experimental: HCT116-S100A4p-LUC colon cancer cells stably expressing a human S100A4 promoter-driven luciferase reporter gene construct were screened with the Library of Pharmacologically Active Compounds (LOPAC; FIG. 1, A). The LOPAC Library represents a collection of 1280 well characterized small molecule inhibitors. […] In parallel, cell viability was determined using the Alamar blue assay to evaluate whether some of the inhibitory effects were caused by cytotoxicity (data not shown). […]
For high-throughput screening 2.5×10^3 cells per well of HCT116-S100A4p-LUC cells were seeded into white opaque 384-well plates (Perkin Elmer, Waltham, Mass.) using the BIOMEK 2000 automatic pipetting system (Beckman Coulter, Brea, Calif.). […] Following compound treatment, luciferase expression was determined using Britelite reagent (Perkin Elmer) in a Wallac Victor reader (Perkin Elmer). In parallel, cytotoxicity of the compounds was measured in clear polystyrene 384-well plates (Costar) by Alamar blue cytotoxicity assay (Sigma-Aldrich). […] Plates were then read on a Wallac Victor reader at an excitation wavelength of 530 nm and emission wavelength of 590 nm. For both luminescence and Alamar blue fluorescence data, eight vehicle control wells were averaged and test compound results (single well) expressed as percent of control. […]

[2] = tested on: SW620, LS174T, SW480 and DLD-1 cells; experiment: Anchorage-dependent cell proliferation (MTT); format: cell-based, human; conditions: all four cell lines, 1 μM daily
Experimental: For cell proliferation determination of HCT116, SW620, LS174T, SW480 and DLD-1 cells 2×10^3 cells were seeded in 96-well-plates (for each day one plate) and were given 24 hours to attach to the bottom of the well. Cells were from then on treated daily with 1 μM niclosamide or the respective amount of DMSO. For determination of viable cells 3-(4,5-dimethyl-2-thiazol)-2,5-diphenyl-2H-tetrazolium bromide (MTT; Sigma) was added to a final concentration of 0.5 mg per mL and incubated for 3 hours at 37° C. and 5% CO2 in a humidified incubator. […] Crystallized MTT was resolved by 10% SDS in 10 mM HCl and the absorption was measured at 560 nm. […] The average MTT metabolisation was determined of two independent experiments each performed in triplicate.
(A) S100A4 expression under niclosamide treatment. […] S100A4 expression was analyzed with qRT-PCR and immunoblot. […] Migration rates of cells treated with 1 μM niclosamide for 24 hours were determined in a Boyden chamber assay values were normalized to solvent-treated SW620 cells. […] Invaded cells in the lower chamber were counted and normalized to solvent-treated SW620 cells. Differences in solvent vs. niclosamide-treated cells were analyzed by Student's t test. […] The amount of viable cells per well was determined by MTT assay. […] (G) Quantification of colonies formed. Number of colonies (of more than 4 cells) was counted and normalized to solvent-treated SW620 cells. […]

O=C(Nc1ccc([N+](=O)[O-])cc1Cl)c1cc(Cl)ccc1O [niclosamide, 2′,5-dichloro-4′-nitrosalicylanilide]
inhibition of reporter gene expression [1]: strongest candidate
anchorage-dependent cell proliferation [2]: inhibited
